Reference: PMC3113660 (Journal of medicinal chemistry, 2010)
Where two headings read alike, the source gives them in different places.

What was measured:
[1] = system: Plasmodium falciparum (K1, resistant to chloroquine); experiment: In vitro growth inhibition assay of P. falciparum; type: cell-based; conditions: for IC50: Plasmodium falciparum, K1, read-out: antiplasmodial IC50, P. falciparum, in vitro
[2] = system: Leishmania donovani (MHOM/SD/62/1S-CL2D) axenic amastigotes; experiment: Antileishmanial assay; type: cell-based; conditions: for activity against L. donovani (in words): in vitro, axenic amastigotes
[3] = system: T. brucei rhodesiense STIB900; type: in vivo, mice; conditions: for cures: number of mice that survive and are parasite free for 60 days; for toxicity in the in vivo model (mice died due to toxicity): infected mice
[4] = system: Trypanosoma brucei rhodesiense (STIB900); experiment: In vitro growth inhibition assay of T. brucei rhodesiense; type: cell-based; conditions: for SIT, selectivity index for T. brucei rhodesiense: ratio IC50 (L6)/IC50 (T. brucei rhodesiense)
[5] = relative to bis(N-isopropyl)amidine 32

Cl.Cl.N=C(N)c1cccc(-c2cn(-c3cccc(C(=N)N)c3)nn2)c1 [Compound 1, 1,4-Bis(3-amidinophenyl)-1H-1,2,3-triazole Dihydrochloride]
IC50 [1]: < 58 nM
activity against L. donovani (in words) [2]: active
cures ([3]; 4 × 5 mg/kg ip): no activity

COc1ccc(C(=N)N)cc1-c1cn(-c2cccc(C(=N)N)c2)nn1.Cl.Cl [Compound 7, 4-(5-Amidino-2-methoxyphenyl)-1-(3-amidinophenyl)-1H-1,2,3-triazole Dihydrochloride]
fold less active against T. brucei rhodesiense ([4]; relative to diamidine 1): 20 fold
IC50 [1]: < 58 nM

COc1ccc(C2=NCCN2)cc1-c1cn(-c2cccc(C3=NCCN3)c2)nn1.Cl.Cl [Compound 9, 4-[5-(4,5-Dihydro-1H-imidazol-2-yl)-2-methoxyphenyl]-1-[3-(4,5-dihydro-1H-imidazol-2-yl)phenyl]-1H-1,2,3-triazole Dihydrochloride]
SIT, selectivity index for T. brucei rhodesiense [4]: >29333
times as active against T. brucei rhodesiense ([4]; relative to unsubstituted analogue 3): ~2350 times
IC50 [1]: < 58 nM
fold more active against P. falciparum ([1]; relative to diimidazoline 3): 26 fold
activity against L. donovani (in words) [2]: active
cures ([3]; 4 × 1 mg/kg ip): no cures

Cl.Cl.N=C(N)c1cccc(-c2cn(-c3cc(C(=N)N)ccc3O)nn2)c1 [Compound 10, 1-(5-Amidino-2-hydroxyphenyl)-4-(3-amidinophenyl)-1H-1,2,3-triazole Dihydrochloride]
fold less active against T. brucei rhodesiense ([4]; relative to diamidine 1): 600 fold
fold less potent against P. falciparum ([1]; relative to 2-methoxy analogue 4): 320 fold
fold less potent against P. falciparum ([1]; relative to dication 1): 425 fold

Cl.Cl.N=C(N)c1cccc(-n2cc(-c3cc(C(=N)N)ccc3O)nn2)c1 [Compound 13, 4-(5-Amidino-2-hydroxyphenyl)-1-(3-amidinophenyl)-1H-1,2,3-triazole Dihydrochloride]
fold less active against T. brucei rhodesiense ([4]; relative to diamidine 1): 2 fold
IC50 [1]: < 58 nM
activity against L. donovani (in words) [2]: active

CC(C)NC(=N)c1ccc(-n2cc(-c3cccc(C(=N)NC(C)C)c3)nn2)cc1.Cl.Cl [Compound 17, 1-(4-N-Isopropylamidinophenyl)-4-(3-N-isopropylamidinophenyl)-1H-1,2,3-triazole Dihydrochloride]
fold less active against T. brucei rhodesiense ([4]; relative to diamidine 16): 67 fold
IC50 [1]: < 58 nM

COc1cc(C(=N)N)ccc1-n1cc(-c2cccc(C(=N)N)c2)nn1.Cl.Cl [Compound 19, 1-(4-Amidino-2-methoxyphenyl)-4-(3-amidinophenyl)-1H-1,2,3-triazole Dihydrochloride]
SIT, selectivity index for T. brucei rhodesiense [4]: >17455
IC50 [1]: < 58 nM
activity against L. donovani (in words) [2]: active

COc1cc(C(=N)NC(C)C)ccc1-n1cc(-c2cccc(C(=N)NC(C)C)c2)nn1.Cl.Cl [Compound 20, 1-(4-N-Isopropylamidino-2-methoxyphenyl)-4-(3-N-isopropylamidinophenyl)-1H-1,2,3-triazole Dihydrochloride]
fold less active against T. brucei rhodesiense ([4]; relative to congener 19): 178 fold
IC50 [1]: < 58 nM

COc1ccc(C(=N)NC(C)C)cc1-c1cn(-c2ccc(C(=N)NC(C)C)cc2)nn1.Cl.Cl [Compound 23, 4-(5-N-Isopropylamidino-2-methoxyphenyl)-1-(4-N-isopropylamidinophenyl)-1H-1,2,3-triazole Dihydrochloride]
IC50 [1]: < 58 nM
toxicity in the in vivo model (mice died due to toxicity) ([3]; 4 × 5 mg/kg ip, 5 mg/kg): toxic

Cl.Cl.N=C(N)c1ccc(-n2cc(-c3cc(C(=N)N)ccc3O)nn2)cc1 [Compound 28, 4-(5-Amidino-2-hydroxyphenyl)-1-(4-amidinophenyl)-1H-1,2,3-triazole Dihydrochloride]
IC50 [1]: < 58 nM
activity against L. donovani (in words) [2]: active

Cl.Cl.Oc1ccc(C2=NCCN2)cc1-c1cn(-c2ccc(C3=NCCN3)cc2)nn1 [Compound 30, 4-[5-(4,5-Dihydro-1H-imidazol-2-yl)-2-hydroxyphenyl]-1-[4-(4,5-dihydro-1H-imidazol-2-yl)phenyl]-1H-1,2,3-triazole Dihydrochloride]
IC50 [1]: < 58 nM
activity against L. donovani (in words) [2]: active

Cl.Cl.N=C(N)c1ccc(-c2cn(-c3cccc(C(=N)N)c3)nn2)cc1 [Compound 31, 1-(3-Amidinophenyl)-4-(4-amidinophenyl)-1H-1,2,3-triazole Dihydrochloride]
cures ([3]; 4 × 5 mg/kg ip): curing one out of four mice

CC(C)NC(=N)c1ccc(-c2cn(-c3cccc(C(=N)NC(C)C)c3)nn2)cc1.Cl.Cl [Compound 32, 1-(3-N-Isopropylamidinophenyl)-4-(4-N-isopropylamidinophenyl)-1H-1,2,3-triazole Dihydrochloride]
fold less active against T. brucei rhodesiense ([4]; relative to diamidine 31): 77 fold
IC50 [1]: < 58 nM

COc1cc(C(=N)N)ccc1-c1cn(-c2cccc(C(=N)N)c2)nn1.Cl.Cl [Compound 37, 4-(4-Amidino-2-methoxyphenyl)-1-(3-amidinophenyl)-1H-1,2,3-triazole Dihydrochloride]
IC50 [1]: < 58 nM
cures ([3]; 4 × 1 mg/kg ip): no cures

COc1cc(C(=N)NC(C)C)ccc1-c1cn(-c2cccc(C(=N)NC(C)C)c2)nn1.Cl.Cl [Compound 38, 4-(4-N-Isopropylamidino-2-methoxyphenyl)-1-(3-N-isopropylamidinophenyl)-1H-1,2,3-triazole Dihydrochloride]
fold less active against T. brucei rhodesiense ([4]; relative to diamidine 37): 141 fold
IC50 [1]: < 58 nM

CC(C)NC(=N)c1ccc(-c2cn(-c3cc(C(=N)NC(C)C)ccc3O)nn2)cc1.Cl.Cl [Compound 41, 1-(5-N-Isopropylamidino-2-hydroxyphenyl)-4-(4-N-isopropylamidinophenyl)-1H-1,2,3-triazole Dihydrochloride]
fold less active against T. brucei rhodesiense [4, 5]: 33 fold
fold less active against P. falciparum [1, 5]: 123 fold

Cl.Cl.N=C(N)c1cccc(-n2cc(-c3ccc(C(=N)N)cc3O)nn2)c1 [Compound 43, 4-(4-Amidino-2-hydroxyphenyl)-1-(3-amidinophenyl)-1H-1,2,3-triazole Dihydrochloride]
SIT, selectivity index for T. brucei rhodesiense [4]: >26250
IC50 [1]: < 58 nM
cures ([3]; 4 × 5 mg/kg ip): curing at least two out of four animals

CC(C)NC(=N)c1ccc(-c2cn(-c3ccc(C(=N)NC(C)C)cc3)nn2)cc1.Cl.Cl [Compound 47, 1,4-Bis(4-N-isopropylamidinophenyl)-1H-1,2,3-triazole Dihydrochloride]
IC50 [1]: < 58 nM
toxicity in the in vivo model (mice died due to toxicity) ([3]; 4 × 5 mg/kg ip): toxic

COc1cc(C(=N)N)ccc1-c1cn(-c2ccc(C(=N)N)cc2)nn1.Cl.Cl [Compound 52, 4-(4-Amidino-2-methoxyphenyl)-1-(4-amidinophenyl)-1H-1,2,3-triazole Dihydrochloride]
cures ([3]; 4 × 5 mg/kg ip): curing at least two out of four animals

N=C(N)c1ccc(OCCCCCOc2ccc(C(=N)N)cc2)cc1 [pentamidine, 1,5-bis(4-amidinophenoxy)pentane, reference compound]
IC50 ([2]; Leishmania donovani, read-out: L. donovani IC50): 1800 nM
